Measured values as given in paper PMC9268025, “GC-MS/MS Quantification of EGFR Inhibitors, β-Sitosterol, Betulinic Acid, (+) Eriodictyol, (+) Epipinoresinol, and Secoisolariciresinol, in Crude Extract and Ethyl Acetate Fraction of Thonningia sanguinea” (Molecules, 2022).

Molecular target: epidermal growth factor receptor (EGFR) (Homo sapiens, UniProt P00533)
Test: ADP-Glo EGFR kinase inhibition assay (Promega V9261), eight concentrations
Assay type: biochemical

Sequence of epidermal growth factor receptor (EGFR) (P00533 25-1210): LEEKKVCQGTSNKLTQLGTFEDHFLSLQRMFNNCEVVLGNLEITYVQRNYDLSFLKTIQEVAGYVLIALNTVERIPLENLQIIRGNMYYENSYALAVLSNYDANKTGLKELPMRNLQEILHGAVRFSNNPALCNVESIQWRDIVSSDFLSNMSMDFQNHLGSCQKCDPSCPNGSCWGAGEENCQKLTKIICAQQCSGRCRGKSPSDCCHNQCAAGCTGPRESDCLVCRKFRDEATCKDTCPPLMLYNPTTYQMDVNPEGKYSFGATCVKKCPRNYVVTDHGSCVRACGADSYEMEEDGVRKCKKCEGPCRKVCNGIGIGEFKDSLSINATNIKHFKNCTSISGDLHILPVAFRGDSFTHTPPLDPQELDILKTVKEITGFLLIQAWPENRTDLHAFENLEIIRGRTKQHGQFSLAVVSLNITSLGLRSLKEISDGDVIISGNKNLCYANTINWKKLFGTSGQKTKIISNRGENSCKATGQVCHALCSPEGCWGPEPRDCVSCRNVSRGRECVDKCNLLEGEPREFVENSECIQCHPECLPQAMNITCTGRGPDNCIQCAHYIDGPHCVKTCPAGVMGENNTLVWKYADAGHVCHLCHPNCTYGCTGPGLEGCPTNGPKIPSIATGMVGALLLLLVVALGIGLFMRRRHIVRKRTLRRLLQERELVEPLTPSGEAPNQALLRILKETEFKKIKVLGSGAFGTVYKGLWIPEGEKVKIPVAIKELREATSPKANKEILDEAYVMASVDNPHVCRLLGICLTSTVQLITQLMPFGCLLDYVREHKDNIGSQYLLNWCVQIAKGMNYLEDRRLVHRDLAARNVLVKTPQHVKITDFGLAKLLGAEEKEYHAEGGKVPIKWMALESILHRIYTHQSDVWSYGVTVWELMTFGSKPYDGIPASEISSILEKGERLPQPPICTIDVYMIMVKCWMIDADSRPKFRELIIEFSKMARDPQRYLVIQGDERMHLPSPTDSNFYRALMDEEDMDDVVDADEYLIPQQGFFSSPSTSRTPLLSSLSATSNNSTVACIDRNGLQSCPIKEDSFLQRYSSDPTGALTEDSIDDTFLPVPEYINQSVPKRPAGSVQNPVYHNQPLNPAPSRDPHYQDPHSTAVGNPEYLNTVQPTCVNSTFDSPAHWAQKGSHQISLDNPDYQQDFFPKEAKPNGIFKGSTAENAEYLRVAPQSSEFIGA

SMILES | IC50
O=C1C[C@@H](c2ccc(O)c(O)c2)Oc2cc(O)cc(O)c21 [(+) Eriodictyol] | 76.2 nM
COc1cc(C[C@@H](CO)[C@H](CO)Cc2ccc(O)c(OC)c2)ccc1O [Secoisolariciresinol] | 80.3 nM
